{
  "source": "patent US6017962A",
  "about": "“Method of depletion of methionine in plasma and solid tumors and uses thereof” (Board of Regents, The University of Texas System, priority 1997, dated 2000)",
  "key": {"MGMT [1]": {"system": "MGMT", "settings": "some tumor cell lines; von Wronski et al., 1994; cited from earlier work"}, "D-341": {"system": "D-341", "assay": "Cytotoxicity of BCNU", "type": "cell-based", "settings": "Homo sapiens, 1 h BCNU, 4 days", "method": "(§1) The cytotoxicity of BCNU on cultured cells in MET^+ HCY^+ and MET^- HCY^+ was measured by a modification of the method of Branch et. al. (1993) as follows: methionine-dependent cells were seeded and cultured in MET^+ HCY^- in 35 mm petri dishes until they were nearly confluent. The cells were then transferred in MET^- HCY^+ and cultured for an additional 4 to 6 days at which time cell numbers were reduced due to cell death and inhibition of mitosis. Dead cells were removed and medium was replaced on a daily basis. Following this period in MET^- HCY^+ medium, remaining live cells were washed with PBS and then treated with various concentrations of BCNU in PBS for 1 hour at 37° C. while they were still attached. Subsequently, the BCNU was removed, replaced with MET^+ HCY^- medium and cultures were incubated for an additional 4 days at 37° C. in 6% CO2. At that time cells were trypsinized and counted using a Coulter-Counter (Coulter Electronics, Hialeah Fla.). The concentration of the drug that halves the growth rate of the tumor cells (IC50), was determined from plots of BCNU concentrations versus the percent change in cell numbers as compared to untreated controls within a four day interval from treatment (Jackson, 1992). The IC50 of BCNU on methionine-dependent cells cultured in MET^+ HCY^- or methionine independent cells cultured in either media was also determined by the same method."}, "Daoy [2]": {"system": "Daoy", "assay": "Cytotoxicity of BCNU", "type": "cell-based", "settings": "Homo sapiens", "method": "as §1"}, "H-1623": {"system": "H-1623", "assay": "Cytotoxicity of BCNU", "type": "cell-based", "settings": "Homo sapiens, 1 h BCNU, 4 days", "method": "as §1"}, "H-1944": {"system": "H-1944", "assay": "Cytotoxicity of BCNU", "type": "cell-based", "settings": "Homo sapiens, 1 h BCNU, 4 days", "method": "as §1"}, "NIH-3T3": {"system": "NIH-3T3", "assay": "Cytotoxicity of BCNU", "type": "cell-based", "settings": "Mus musculus, NIH3T3, 1 h BCNU, 4 days", "method": "as §1"}, "U-138": {"system": "U-138", "assay": "Cytotoxicity of BCNU", "type": "cell-based", "settings": "Homo sapiens, 1 h BCNU, 4 days", "method": "as §1"}, "U-87": {"system": "U-87", "assay": "Cytotoxicity of BCNU", "type": "cell-based", "settings": "Homo sapiens, U-87 MG, U-87 (mer^-), 1 h BCNU, 4 days", "method": "as §1"}, "SW-40": {"system": "SW-40", "assay": "Cytotoxicity of BCNU", "type": "cell-based, human", "settings": "for IC50: Homo sapiens, SW-40 (mer^-), 1 h BCNU, 4 days", "method": "as §1"}, "[3]": {"system": "MET-independent or mer^- tumor cell lines and normal cells", "assay": "Cytotoxicity of BCNU (summary)", "type": "cell-based", "settings": "MET^- HCY^+ versus MET^+ HCY^-", "method": "as §1"}, "[4]": {"system": "Methionine-dependent, mer^+ tumor cells", "assay": "Cytotoxicity of BCNU (summary)", "type": "cell-based", "settings": "Homo sapiens", "method": "as §1"}, "MGMT positive tumors": {"system": "MGMT positive tumors", "settings": "prior depletion of MGMT; Dolan et al., 1993; Schold et al., 1996; cited from earlier work"}, "[5]": {"assay": "Plasma methionine and thiols after diet, methionine precursor and methioninase", "type": "in vivo, nude mice", "settings": "met^- hcy^- chl^- diet, 8 h after precursor 50 mg/kg ip, no methioninase", "method": "The methionine peak is marked with an asterik.\nFIG. 7A: homocysteine thiolactone; FIG. 7B: homocysteine thiolactone+methioninase; FIG. 7C: homocystine; and FIG. 7D: homocystin+methioninase. All animals were killed 6 hours after the injection of the methionine precursor.\n^1 Levels of total thiols in circulation 8 hours after injection (ip)\nof met precursor and 6 hours after treatment with methioninase. Mean of 3\ndeterminations ± SD. MET precursor was 50 mg/kg; methioninase\n(abbreviated METH.) was 1000k U/kg."}, "MGMT [6]": {"system": "MGMT", "settings": "Daoy; 48 hrs from repletion following 10 days in HCY", "experimental": "Detaching cells ascertained to be dead by trypan blue exclusion were removed by changing the medium every 48 hours. Cells were then either trypsinized and reseeded in the same medium or washed with PBS and supplied with the methionine-HCY^+ medium. Due to extensive death in this medium, it was necessary to remove detaching dead cells on a daily basis. Cells from both media were harvested at time intervals indicated and used to measure cell cycle status and MGMT activity. Cells from either cultures (5×10^7) were also harvested, washed with PBS and immediately frozen as a source of protein, DNA and RNA. All cells collected were live (>95%) as determined by trypan blue exclusion.\nThe [^3 H]DNA substrate for measurements of MGMT activity was synthesized as follows: One mCi ethanolic solution of N-[^3 H]methyl-N-nitrosourea (MNU) having specific activity 18.8 Ci/mmol (Amersham) was concentrated to 0.2 ml with a N2 stream and mixed with 1 ml of DNA solution (5 mg) in 0.02 M 2-amino-2-methyl-1,3-propanediol at pH 10. […]\nThe [^3 H]DNA contained 29.8 μCi of radioactivity (alkylation efficiency 3%) which was distributed as 3-methyladenine 3.5%, 7-MeG 79.6%, 1-methyladenine 0.6%, O^6 -MeG 9.0% and other adducts 7.3%. The specific activities of 7-MeG and O^6 -MeG were calculated to be 15.8±0.8 and 16.5±0.5 Ci/mmol respectively. […]"}, "Daoy [7]": {"system": "Daoy", "settings": "48 hrs from repletion following 10 days in HCY"}, "[8]": {"settings": "MET^+ HCY^- culture, read-out: IC50 (MET)"}, "[9]": {"settings": "MET^- HCY^+ culture, read-out: IC50 (HCY)"}},
  "note": "Read-outs that look alike come from different tables or passages of the source.",
  "data": [
    {"smiles": "Nc1ncn([C@@H]2O[C@H](CO)[C@@H](O)[C@H]2O)c(=O)n1", "note": "[5-azacytidine]", "values": [
      {"measurement": "increase of the MGMT activity", "setting": "MGMT [1]", "value": "substantial increase"}
    ]},
    {"smiles": "O=NN(CCCl)C(=O)NCCCl", "note": "[BCNU, 1,3-bis (2-chloroethyl)-1-nitrosourea]", "values": [
      {"measurement": "IC50", "setting": "D-341; D341, MET^+ HCY^- culture, read-out: IC50 (MET)", "value": 65, "unit": "µM"},
      {"measurement": "IC50", "setting": "D-341; D341, MET^- HCY^+ culture, read-out: IC50 (HCY)", "value": 10, "unit": "µM"},
      {"measurement": "IC50", "setting": "Daoy [2]; MET^+ HCY^- culture, 1 h BCNU, counted after 4 days, read-out: IC50 (MET)", "value": 45, "unit": "µM"},
      {"measurement": "IC50", "setting": "Daoy [2]; cultured in MET^- HCY^+ 4 days before 1 h BCNU, read-out: IC50 (HCY)", "value": "~5", "unit": "µM"},
      {"measurement": "IC50", "setting": "H-1623; NCI-H1623, MET^+ HCY^- culture, read-out: IC50 (MET)", "value": 90, "unit": "µM"},
      {"measurement": "IC50", "setting": "H-1623; NCI-H1623, MET^- HCY^+ culture, read-out: IC50 (HCY)", "value": 10, "unit": "µM"},
      {"measurement": "IC50", "setting": "H-1944; NCI-H1944, MET^+ HCY^- culture, read-out: IC50 (MET)", "value": 65, "unit": "µM"},
      {"measurement": "IC50", "setting": "H-1944; NCI-H1944, MET^- HCY^+ culture, read-out: IC50 (HCY)", "value": 10, "unit": "µM"},
      {"measurement": "IC50", "setting": "NIH-3T3; NIH-3T3, control mer+, methionine independent, MET^+ HCY^- culture, read-out: IC50 (MET)", "value": 35, "unit": "µM"},
      {"measurement": "IC50", "setting": "NIH-3T3; NIH-3T3, MET^- HCY^+ culture, read-out: IC50 (HCY)", "value": 40, "unit": "µM"},
      {"measurement": "IC50", "setting": "U-138; [8]", "value": 50, "unit": "µM"},
      {"measurement": "IC50", "setting": "U-138; [9]", "value": 10, "unit": "µM"},
      {"measurement": "IC50", "setting": "U-87; [8]", "value": 15, "unit": "µM"},
      {"measurement": "IC50", "setting": "U-87; [9]", "value": 15, "unit": "µM"},
      {"measurement": "IC50", "setting": "SW-40; [8]", "value": 10, "unit": "µM"},
      {"measurement": "IC50", "setting": "SW-40; [9]", "value": 15, "unit": "µM"},
      {"measurement": "resistance to BCNU upon methionine depletion", "setting": "SW-40; SWB-40, mer^-, methionine-dependent", "value": "not affected"},
      {"measurement": "sensitivity to BCNU", "setting": "[3]", "value": "unaffected"},
      {"measurement": "IC50", "setting": "[4]; cultured in MET^+ HCY^-", "value": "45 to 90", "unit": "µM"},
      {"measurement": "IC50", "setting": "[4]; cultured in MET^- HCY^+", "value": "5 to 10", "unit": "µM"}
    ]},
    {"smiles": "Nc1nc(OCc2ccccc2)c2[nH]cnc2n1", "note": "[O^6 -benzylguanine]", "values": [
      {"measurement": "increase in the efficacy of alkylating drugs such as BCNU", "setting": "MGMT positive tumors", "value": "Significant increase"}
    ]},
    {"smiles": "NC1CCSC1=O", "note": "(centres unmarked) [homocysteine thiolactone]", "values": [
      {"measurement": "CYS", "setting": "[5]", "value": "100 ± 13", "unit": "µM"},
      {"measurement": "GSH", "setting": "[5]", "value": 81, "unit": "µM"},
      {"measurement": "HCY", "setting": "[5]", "value": "20 ± 3", "unit": "µM"},
      {"measurement": "MET", "setting": "[5]", "value": "12 ± 3", "unit": "µM"}
    ]},
    {"smiles": "N[C@@H](CCSSCC[C@H](N)C(=O)O)C(=O)O", "note": "[homocystine]", "values": [
      {"measurement": "CYS", "setting": "[5]", "value": "100 ± 4", "unit": "µM"},
      {"measurement": "GSH", "setting": "[5]", "value": "56 ± 8", "unit": "µM"},
      {"measurement": "HCY", "setting": "[5]", "value": "17 ± 2", "unit": "µM"},
      {"measurement": "MET", "setting": "[5]", "value": "6 ± 2", "unit": "µM"}
    ]},
    {"smiles": "CSCC[C@H](N)C(=O)O", "note": "[methionine]", "values": [
      {"measurement": "recovery of MGMT activity", "setting": "MGMT [6]", "value": "65 % of the base line"},
      {"measurement": "doubling time after repletion of methionine", "setting": "Daoy [7]", "value": 22, "unit": "h"}
    ]}
  ]
}
